We go through nine compounds from patent US11214567B2, “Small molecule inhibitors of MYC and uses thereof” (The Regents of the University of Michigan, priority 2017, dated 2022).

Usually IC50 stands for the point on the concentration scale where inhibition reaches its midpoint. Read a low IC50 as inhibition by little substance.

The structures appear in SMILES notation.

Test [1] deals with MIA PaCa-2. In words: MTT assay (cytotoxicity), MIA PaCa-2. The class given is cell-based. To be noted: Homo sapiens, 72 h, drug concentration causing a 50% decrease in cell population. The procedure: (§1) The evaluation of cytotoxicity was based on the reduction of MTT dye by viable cells to give purple formazan products, which can be measured spectrophotometrically at 540 nm. One hundred eighty microliters of cancer cells were seeded into 96-well plates at 3,500-4,000 cells/well and incubated at 37° C. overnight before the indicated treatments. After 72 h, 20 μl of MTT solution (3 mg/ml) was added and incubated again for 3 h. After removal of media and solubilization of formazan crystals in 150 μL of DMSO, the absorbance was measured at 570 nm. Percentage of cell growth inhibition was expressed as 1-[(A−B)/(C−B)]×100% (A, B and C were the absorbance values from experimental, blank and control cells, respectively).
(§2) KJA derivatives were tested by the MTT assay against five human cancer cell lines including ovarian cancer cell lines (OVCAR-8, NCI/ADR-RES and SKOV3) and pancreatic cancer cell lines (MIA PaCa-2 and Pac-1). […] It is important to note that the NCI/ADR-RES cell line shares a large number of karyotypic abnormalities with OVCAR-8 but expresses high levels of MDR1 (multidrug resistance protein 1)/P-glycoprotein (see, e.g., Xu, S.; et al., Proceedings of the National Academy of Sciences 2012, 109, 16348-16353), resulting in resistance to multiple anticancer drugs in clinical use, including paclitaxel and doxorubicin.

In test [2] the test system is SKOV3. Briefly: MTT assay (cytotoxicity), SKOV3. The class given is cell-based. To be noted: Homo sapiens, SK-OV-3, 72 h, drug concentration causing a 50% decrease in cell population. The procedure: as §1, §2
On the technique in general: Tetrazolium assays rely on reduction of a dye to a coloured formazan, in cell work by metabolically active cells.

Test [3] relates to Panc1. In words: MTT assay (cytotoxicity), Panc1. The class given is cell-based. Particulars: Homo sapiens, PANC-1, 72 h, drug concentration causing a 50% decrease in cell population. The protocol:
as §1, §2

Test [4] concerns NCI/ADR-RES. In words: MTT assay (cytotoxicity), NCI/ADR-RES. The class given is cell-based, human. Particulars: Homo sapiens, NCI/ADR-RES; MTT, 72 h; drug concentration causing a 50% decrease in cell population. The protocol:
as §1, §2

Test [5] deals with OVCAR8. In words: MTT assay (cytotoxicity), OVCAR8. Format: cell-based. To be noted: Homo sapiens, OVCAR-8, 72 h, drug concentration causing a 50% decrease in cell population. The procedure:
as §1, §2

For test [6], the system named is C-MYC. Briefly: Western blotting of C-MYC protein levels in cancer cells. The class given is cell-based, human. Particulars: NCI/ADR-RES cells; 0.5 μM; positive control. The procedure:
Cells (5×10^5) were cultured in 6-well plate and treated with KJA03 at designated concentrations. After treatment, cells were lysed with cell lysis buffer on ice at 4° C., sonicated for 3 min, centrifuged (12,000 rpm, 10 min, 4° C.) and then, the supernatant was collected. Protein concentrations of supernatants were evaluated with BCA assay. Proteins were resolved in 10% SDS/PAGE and electrotransferred to Immun-Blot PVDF membrane (Bio-Rad). After blocking with 5% milk in TBST (Tris-buffered saline with 0.1% Tween 20), membranes were probed with primary antibodies (anti-PARP, anti-caspase 3 and anti-GAPDH) 1:1000 dilutions overnight at 4° C. Membranes were then washed with TBST (5 min×3), incubated with Dylight 800-conjugated secondary antibodies 1:7500 dilutions in 5% milk for 1 h at room temperature, and washed with TBST (5 min×3). Fluorescent signal was then scanned by Odyssey Imaging Systems (LI-COR Biosciences).
The effect of KJA03 on the MYC protein levels, including C-MYC and N-MYC, NCI/ADR-RES cells were treated with KJA03 at concentration of 0.1 (half IC50) and 0.2 (IC50) μM for 24 and 48 h. […] It has previously been reported that JQ1 treatment leads to down-regulation of c-MYC protein levels in osteosarcoma, leukemia and lymphoma cells (see, e.g., Mertz, J. A.; et al., Proceedings of the National Academy of Sciences 2011, 108, 16669-16674).
Experiments were conducted to further repeat the experiment and JQ1 was chosen as a positive control. As expected, expression of C-MYC was reduced by KJA03 at 24 h of treatment, correlated with previous experiment (FIG. 3).
Experiments were conducted that further performed a time-course experiment to evaluate C-MYC suppression including 2, 6, 8 24 and 48 h at concentration of 0.2 μM. To define the specificity of MYC suppression in further detail, we treated cells with a range of compound concentrations at 24 h. […] To determine whether KJA03 can suppress C-MYC in different cell lines, we next investigated the level of C-MYC in response to treatment with KJA03 at 0.2 μM using other three different OVCAR8, MIA PaCa-2 and Panc-1 cell lines.
(In general: A western blot detects proteins with antibodies after separation by electrophoresis.)

The test system of test [7] is c-MYC. Particulars: osteosarcoma, leukemia and lymphoma cells; cited from earlier work.

Consider `COc1cc(-c2nc(-c3ccccc3Cl)no2)c(-n2c(-c3ccccc3Cl)noc2=O)cc1OC` [KJA10, 3-(2-Chlorophenyl)-4-(2-(3-(2-chlorophenyl)-1,2,4-oxadiazol-5-yl)-4,5-dimethoxyphenyl)-1,2,4-oxadiazol-5(4H)-one], for which the IC50 in test [1] turned out to be 0.71 µM; in test [2], 3.23 ± 0.37 µM; in test [3], 1.08 µM; in test [4] it was 2 ± 0.76 µM; in test [5], 0.71 ± 0.08 µM.
For `O=c1onc(-c2ccc(F)cc2)n1-c1ccccc1-c1nc(-c2ccc(F)cc2)no1` [KJA04, 3-(4-Fluorophenyl)-4-(2-(3-(4-fluorophenyl)-1,2,4-oxadiazol-5-yl)phenyl)-1,2,4-oxadiazol-5(4H)-one], in that order: 5.17 µM, 20.9 µM, 3.22 µM, 7.63 ± 3.01 µM and 7.21 ± 1.55 µM.
In the case of `CC(=O)O[C@H]1C(=O)[C@@]2(C)[C@H]([C@H](OC(=O)c3ccccc3)[C@]3(O)C[C@H](OC(=O)[C@H](O)[C@@H](NC(=O)c4ccccc4)c4ccccc4)C(C)=C1C3(C)C)[C@]1(OC(C)=O)CO[C@@H]1C[C@@H]2O` [Paclitaxel, reference compound], the IC50 in test [1] was below 0.04 µM; in test [3], below 0.04 µM; in test [4], above 30 µM; in test [5], below 0.04 µM.
Turning to `Cc1sc2c(c1C)C(c1ccc(Cl)cc1)=N[C@@H](CC(=O)OC(C)(C)C)c1nnc(C)n1-2` [JQ1, reference compound], in test [6], the C-MYC expression entry is “did not inhibit C-MYC expression”. Also, the c-MYC protein levels result in test [7] was “down-regulation”.
`COc1cc(-c2nc(-c3ccccc3)no2)c(-n2c(-c3ccccc3)noc2=O)cc1OC` [KJA06, 4-(4,5-Dimethoxy-2-(3-phenyl-1,2,4-oxadiazol-5-yl)phenyl)-3-phenyl-1,2,4-oxadiazol-5(4H)-one]: the half-inhibitory concentration (IC50) in test [1], in test [2], in test [3], in test [4] and in test [5] was above 30 µM throughout.
For `O=c1onc(-c2ccc(Cl)cc2)n1-c1ccccc1-c1nc(-c2ccc(Cl)cc2)no1` [KJA02, 3-(4-Chlorophenyl)-4-(2-(3-(4-chlorophenyl)-1,2,4-oxadiazol-5-yl)phenyl)-1,2,4-oxadiazol-5(4H)-one], the IC50 was determined as 1.12 µM in test [1]; 11.2 µM in test [2]; 1.51 µM in test [3]; 4.16 ± 2.61 µM in test [4]; 1.96 ± 0.42 µM in test [5].
As to `O=c1onc(-c2ccccc2F)n1-c1ccccc1-c1nc(-c2ccccc2F)no1` [KJA17, 3-(2-Fluorophenyl)-4-(2-(3-(2-fluorophenyl)-1,2,4-oxadiazol-5-yl)phenyl)-1,2,4-oxadiazol-5(4H)-one], the IC50 in test [1] is 1.43 µM; in test [2], 25.6 µM; in test [3], 3.17 µM; in test [4] it was 9.42 ± 1.61 µM; in test [5] it was 9.12 ± 0.88 µM.
The matching figures for `COc1cc(-c2nc(-c3ccc(Cl)cc3)no2)c(-n2c(-c3ccc(Cl)cc3)noc2=O)cc1OC` [KJA09, 3-(4-Chlorophenyl)-4-(2-(3-(4-chlorophenyl)-1,2,4-oxadiazol-5-yl)-4,5-dimethoxyphenyl)-1,2,4-oxadiazol-5(4H)-one]: above 30 µM, above 30 µM, above 30 µM, above 30 µM and above 30 µM.
Consider `O=c1onc(-c2ccccc2)n1-c1ccccc1-c1nc(-c2ccccc2)no1` [KJA01, 3-Phenyl-4-(2-(3-phenyl-1,2,4-oxadiazol-5-yl)phenyl)-1,2,4-oxadiazol-5(4H)-one], for which the IC50 was 2.49 µM in test [1]; 5.82 µM in test [2]; 2.16 µM in test [3]; 4.31 ± 0.55 µM in test [4]; 4.65 ± 2.05 µM in test [5].
